Measured values: patent US20180113128A1, “DETECTION OF URINARY TRACT INFECTIONS” (ISI Life Sciences, Inc., priority 2016, published 2018)

Key:
Type in all cases: biochemical
[1] = test system: urease; assay: In vitro test demonstrating breakage of ester bonds (urea buffers with or without urease, 96 well); settings: ten minutes
Description: Two different fluorescein diesters were used in this example. These diesters were fluorescein dibutyrate and fluorescein dioctanoate both of which are commercially available or can be prepared by reacting fluorescein under conventional esterification techniques using as acid anhydrides, acid chlorides, etc. as described herein. The structure of fluorescein diesters is as set forth below:
A. Fluorescein dibutryate (each R is —CH2CH2CH2CH3) B. Fluorescein dioctanoate (each R is —CH2CH2CH2CH2CH2CH3) • The assay was conducted with the following: 1. Assay Buffer A: 0.5 M Urea in phosphate buffered saline, pH 7 (freshly prepared from solid urea). 2. Assay Buffer B: Assay Buffer A plus 0.05% bovine serum albumin 3. Urease: 2000 u/mL in phosphate buffered saline (PBS). This equates to about 40 mg per mL. 4. Fluorescein diesters are dissolved in water with 1% DMSO.
100 microliters of PBS, Assay Buffer A, or Assay Buffer B were added to wells of a 96 well cluster. • 10 microliters of urease were added to the indicated wells. • 5 microliters of each diester were added to each well.
The wells were monitored for ten minutes at which time a photograph was taken.

[2] = test system: leukocyte esterases; assay: Fourth in vitro test: pro-label contacted with blood lysate
Description: Certain E. coli species are a common cause of UTIs. […] So, unlike Example 3 where E. coli was used in the absence of blood components, this example evaluates the results of whether a blood lysate would deacylate the ester bonds of pro-labels. Specifically, this example evaluates if these esterases are present in sufficient quantities in the lysate to effect transformation of the pro-labels to labels by deacylation. Accordingly, fluorescein dioctanoate (a non-fluorescent pro-label) was contacted with a blood lysate. A control composition (phosphate buffered saline) containing the same pro-label was prepared. […] The first column contains the control and the second column contains the pro-labeled solution. This figure is taken at time equal to zero. […] As before, the left column is control and the right column is the blood lysate in the presence of fluorescein dioctanoate. […] As to the greenish tinge around the control test tubes, it is postulated that this is the result of reflection from the bright green fluorescence of the adjacent tubes (not shown). Those tubes were removed from FIG. 4 so as to allow a direct comparison between the control and fluorescein dioctanoate.

[3] = test system: urease; assay: Second in vitro test: pro-label in normal human urine with or without urease; settings: room temperature, approximately 10 minutes
Method: In this example, fluorescein dioctanoate (a non-fluorescent derivative of fluorescein and a pro-label) was combined with normal urine recently obtained from a volunteer. The urine was divided into two containers. The first container (A) contained fluorescein dioctanoate added as a 1% solution in DMSO. The second container (B) additionally contained urease.
Both samples were maintained at room temperature for approximately 10 minutes and the samples were then evaluated for fluorescence. As is well known, the fluorescence emitted by fluorescein is typically a greenish-yellow color.

[4] = Buffer A: 0.5 M urea in PBS pH 7, no urease
[5] = Buffer B: Buffer A plus 0.05% bovine serum albumin, no urease

Row | SMILES | fluorescence (photograph) [1, 4] | fluorescence (photograph) ([1]; Buffer B+urease) | fluorescence (photograph) [1, 5] | fluorescence upon application of UV light ([2]; blood lysate, incubation for 90 minutes) | fluorescence upon application of UV light ([2]; control composition (phosphate buffered saline) containing the same pro-label, 90 minutes) | fluorescein fluorescence in urine sample ([3]; normal human urine plus urease (container B)) | fluorescein fluorescence in urine sample ([3]; normal human urine, no urease (container A))
1 | CCCC(=O)Oc1ccc2c(c1)Oc1cc(OC(=O)CCC)ccc1C21OC(=O)c2ccccc21 [fluorescein dibutyrate] | no fluorescence | fluorescence | minimal fluorescence | – | – | – | –
2 | CCCCCCCC(=O)Oc1ccc2c(c1)Oc1cc(OC(=O)CCCCCCC)ccc1C21OC(=O)c2ccccc21 [fluorescein dioctanoate] | no fluorescence | fluorescence | no to substantially no fluorescence | evidenced fluorescence | did not | presence of fluorescein fluorescence | lack of fluorescein fluorescence
